The source of these data is patent US8940909B2, “Indicator platform” (Biosynth AG, priority 2009, dated 2015).

The test system of data set [1] is enteric bacterial cells. In words: MDAB staining of bacterial colonies with indicators I4a and I5a on Tryptic Soy Agar, aerobic and anaerobic. The note with it: for colonial morphology, aerobic conditions / colonial morphology, microaerobic (anaerobic) conditions: Salmonella manhattan (b-gal −), TSAYE with 40 mg/100 ml of indicator. The format is cell-based. On the procedure: Tryptic Soy Agar (TSA) with yeast extract (0.6%) was used as the base plating medium. The media were autoclaved at 121° C. for 15 minutes and placed in a 50° C. water bath to cool. Indicators were added to the basal medium at a final concentration of 40 mg/100 ml (from 80 mg/ml stock solutions in DMF). Over night cultures of enteric bacterial cells in Brain Heart Infusion Broth were streaked onto the plates and incubated at 35° C. for 24 hours under aerobic and anaerobic conditions. After incubation, the colonial morphologies on the plates were recorded (Table III).
Weak staining was observed occasionally due to residual oxygen (micro-anaerobic conditions). Under aerobic conditions indigo (IN-stains) generally dominated the effects of MDAB staining. For example indicator system I4a/MDAB stained colonies violet under anaerobic but indigo blue under aerobic conditions.

Data set [2] deals with Salmonella enteritidis 43. Description: IO staining of colonies of beta-D-galactosidase positive/negative bacteria (Table IVb). Format: cell-based. The note with it: Salmonella enteritidis strain 43, b-gal −; 24 h on Nutrient Agar, 150 mg/l indicator, 100 mg/l IPTG.
The test system of data set [3] is Pseudomonas aeruginosa 168. Described as above. Format: cell-based. The following applies: Pseudomonas aeruginosa strain 168, b-gal −, 24 h on Nutrient Agar, 150 mg/l indicator, 100 mg/l IPTG.
Data set [4] has as its system Salmonella illa 73. Described as above. The format is cell-based. The note with it: Salmonella illa strain 73, b-gal +; 24 h on Nutrient Agar, 150 mg/l indicator, 100 mg/l IPTG.
The subject of data set [5] is Salmonella bongori 81. The description is as above. The format is cell-based. The following applies: Salmonella bongori strain 81, b-gal +; 24 h on Nutrient Agar, 150 mg/l indicator, 100 mg/l IPTG.
The test system of data set [6] is Escherichia coli (O157:H7) 60. The data set is described as above. The following applies: Escherichia coli (O157:H7) strain 60, b-gal +; 24 h on Nutrient Agar, 150 mg/l indicator, 100 mg/l IPTG. The format is cell-based.
The test system of data set [7] is Bacillus subtilis 65. Described as above. The following applies: Bacillus subtilis strain 65, b-gal −; 24 h on Nutrient Agar, 150 mg/l indicator, 100 mg/l IPTG. The format is cell-based.
Data set [8] has as its system Klebsiella pneumoniae 164. Described as above. Format: cell-based. The following applies: Klebsiella pneumoniae strain 164, b-gal +; 24 h on Nutrient Agar, 150 mg/l indicator, 100 mg/l IPTG.
The test system of data set [9] is Staphylococcus saprophyticus 273. The description is as above. The format is cell-based. The following applies: Staphylococcus saprophyticus strain 273, b-gal +; 24 h on Nutrient Agar, 150 mg/l indicator, 100 mg/l IPTG.
In data set [10] the test system is Enterobacter aerogenes 242. Described as above. The following applies: Enterobacter aerogenes strain 242, b-gal +; 24 h on Nutrient Agar, 150 mg/l indicator, 100 mg/l IPTG. Format: cell-based.
The subject of data set [11] is Shigella sonnei 133. Described as above. The format is cell-based. The following applies: Shigella sonnei strain 133, b-gal +/−; 24 h on Nutrient Agar, 150 mg/l indicator, 100 mg/l IPTG.
For data set [12], the system named is Listeria monocytogenes (4b) 290. The description is as above. The format is cell-based. The following applies: Listeria monocytogenes (4b) strain 290, b-gal −; 24 h on Nutrient Agar, 150 mg/l indicator, 100 mg/l IPTG.
Data set [13] deals with Escherichia coli 61. Described as above. Format: cell-based. The note with it: Escherichia coli strain 61, b-gal +; 24 h on Nutrient Agar, 150 mg/l indicator, 100 mg/l IPTG.
Data set [14] deals with Aeromonas hydrophila 292. Described as above. The format is cell-based. The note with it: Aeromonas hydrophila strain 292, b-gal +; 24 h on Nutrient Agar, 150 mg/l indicator, 100 mg/l IPTG.
The test system of data set [15] is Escherichia coli 270. The data set is described as above. Format: cell-based. The note with it: Escherichia coli strain 270, b-gal +; 24 h on Nutrient Agar, 150 mg/l indicator, 100 mg/l IPTG.
In data set [16] the test system is Enterobacter cloacae 245. The description is as above. Format: cell-based. The following applies: Enterobacter cloacae strain 245, b-gal +; 24 h on Nutrient Agar, 150 mg/l indicator, 100 mg/l IPTG.
Data set [17] has as its system Streptococcus agalactiae 195. The data set is described as above. The format is cell-based. The note with it: Streptococcus agalactiae strain 195, b-gal −; 24 h on Nutrient Agar, 150 mg/l indicator, 100 mg/l IPTG.
Data set [18] deals with Yersinia enterocolitica 175. Described as above. The format is cell-based. The note with it: Yersinia enterocolitica strain 175, b-gal +/−; 24 h on Nutrient Agar, 150 mg/l indicator, 100 mg/l IPTG.
The test system of data set [19] is Escherichia coli. In words: IN and IO staining of bacterial colonies under anaerobic conditions. Format: cell-based. The following applies: Nutrient Agar plates, anaerobically incubated with E. coli. On the procedure: Nutrient Agar plates containing 150 mg/l of various substrates and 100 mg/l IPTG were inoculated with Escherichia coli. Plates were put in an anaerobic jar (Anaerojar, Oxoid), an AnaeroGen sachet (Oxoid) was added, the jar was closed and incubated for 24 hours at 37° C.
IN staining cannot be used under anaerobic conditions.

Data set [20] deals with Shigella boydii 135. In words: IO staining of colonies of beta-D-galactosidase positive/negative bacteria (Table IVb). Format: cell-based. The following applies: Shigella boydii strain 135, b-gal −; 24 h on Nutrient Agar, 150 mg/l indicator, 100 mg/l IPTG.
Data set [21] relates to Staphylococcus aureus 2. The data set is described as above. Format: cell-based. The note with it: Staphylococcus aureus strain 2, b-gal −, 24 h on Nutrient Agar, 150 mg/l indicator, 100 mg/l IPTG.
The test system of data set [22] is Citrobacter freundii 181. The description is as above. The format is cell-based. The following applies: Citrobacter freundii strain 181, b-gal +; 24 h on Nutrient Agar, 150 mg/l indicator, 100 mg/l IPTG.
In data set [23] the test system is Staphylococcus intermedius 31. The data set is described as above. Format: cell-based. The note with it: Staphylococcus intermedius strain 31, b-gal +; 24 h on Nutrient Agar, 150 mg/l indicator, 100 mg/l IPTG.
Data set [24] relates to Serratia marcescens 40. Described as above. The format is cell-based. The note with it: Serratia marcescens strain 40, b-gal +; 24 h on Nutrient Agar, 150 mg/l indicator, 100 mg/l IPTG.
Data set [25] deals with Shigella dysenteriae Serovar 1 131. The description is as above. Format: cell-based. The note with it: Shigella dysenteriae Serovar 1 strain 131, b-gal +/−; 24 h on Nutrient Agar, 150 mg/l indicator, 100 mg/l IPTG.
Data set [26] is described as follows: Reaction of MDAB with active signalogens (aldol donor properties). The note with it: for Efficiency as aldol donor with MDAB: compared with 6-chloro-1H-indol-3-ol (aS3); for Aldol product / color formed with MDAB: presence of MDAB, absence of oxygen.

For “5-Bromo-6-chloro-1H-indol-3-yl-beta-D-galactopyranoside [Indicator I5a]”, the “colonial morphology, aerobic conditions” value in data set [1] (aR MDAB, equivalents 1:1) was “Cream colored colonies”; in data set [1] (no aR), “Cream colored colonies”. For the same molecule, the “colonial morphology, microaerobic (anaerobic) conditions” value in data set [1] (aR MDAB, equivalents 1:1) is “Cream colored colonies”; in [1] (no aR), “Cream colored colonies”.

As to `CN(C)c1ccc(C=O)cc1` [DAB, 4-(N,N-Dimethyl)aminobenzaldehyde], the “Formation of BI-stains when used to replace MDAB” value in [1] (all conditions tested) is listed as “did not produce any BI-stains”.

For the molecule `Cn1cccc1C(=O)c1ccccc1-n1cc(O[C@@H]2O[C@H](CO)[C@H](O)[C@H](O)[C@H]2O)c2ccc(Cl)cc21` [Indicator I31a, 6-Chloro-1-[2-(N-methylpyrrole-2-carbonyl)phenyl]-1H-indol-3-yl-beta-D-galactopyranoside], the “C: Color of colonies” value in [2] is on record as “−”; in data set [3], “−”; in data set [4] it was “−”; in data set [5] it was “+/−”; in data set [6], “+”; in data set [7], “−”. Moreover, the “C: Color of colonies” value in data set [8] was “+”; in [9] it was “+”; in data set [10], “+”; in [11] it was “+”; in data set [12], “−”; in data set [13], “+”. For the same molecule, the “C: Color of colonies” value is “+” in data set [14]; “+” in data set [15]; “+” in data set [16]; “−” in [17]; “+/−” in data set [18]; “o-r” in data set [19]. In addition, the “C: Color of colonies” value in data set [20] is recorded as “−”; in data set [21] (footnote 2: S. aureus natural color) it was “−”; in data set [22], “+”; in data set [23], “+”; in data set [24] it was “+”; in data set [25], “−”. The “F: Fluorescence of colonies” value is given as “−” in data set [2]; “−” in [3] (footnote 1: blue autofluorescence); “−” in data set [4]; “−” in data set [5]; “+/−” in data set [6]; “−” in data set [7]. Also, the “F: Fluorescence of colonies” value in data set [8] was “+/−”; in [9], “−”; in [10], “+/−”; in data set [11] it was “+/−”; in [12] it was “−”; in data set [13] it was “+/−”. Moreover, the “F: Fluorescence of colonies” value was “−” in data set [14]; “+/−” in data set [15]; “+/−” in [16]; “−” in data set [17]; “−” in data set [18]; “−” in data set [20]. Besides, the “F: Fluorescence of colonies” value in [21] is reported as “−”; in data set [22], “+/−”; in data set [23], “−”; in data set [24], “−”; in data set [25] it was “−”. Moreover, the “G: Growth of colonies” value in data set [2], in data set [3], in data set [4], in data set [5], in data set [6] and in [7] was “+” in each case. Moreover, the “G: Growth of colonies” value in data set [8] was “+”; in data set [9] it was “+”; in data set [10], “+”; in data set [11] it was “+”; in [12], “+/−”; in data set [13], “+”. In addition, the “G: Growth of colonies” value in data set [14] is “+”; in data set [15], “+”; in data set [16], “+”; in [17], “+/−”; in data set [18], “+”; in data set [19] it was “+”. The “G: Growth of colonies” value in [20], in [21], in data set [22], in [23], in [24] and in [25] was “+” each time. Besides, the “D: Diffusion around colonies” value in [19] is “+”. Besides, the “I: Intensity of color” value in [19] is on record as “+”. The “L: Localization on colonies” value in data set [19] is on record as “+/−”. Further, the “S: Size of colonies” value in data set [19] was 0.8 mm.

With `COc1cc(N(C)C)ccc1C=O` [MDAB, 2-methoxy-4-(N,N-dimethylamino)benzaldehyde], the “Toxic effect on microbial cell growth” value in data set [1] (Indox/MDAB staining of microbial colonies) is “no toxic effect”.

In the case of `Oc1c[nH]c2ccc(Br)c(Cl)c12` [aS4, 5-Bromo-4-chloro-1H-indol-3-ol], the “Efficiency as aldol donor with MDAB” value in data set [26] is recorded as “far more effective”.

With `Oc1c[nH]c2cc(Cl)c(Br)cc12` [aS5, 5-Bromo-6-chloro-1H-indol-3-ol], the “Efficiency as aldol donor with MDAB” value in data set [26] is “far more effective”.

For `Nc1c[nH]c2ccccc12` [aS6, 1H-Indol-3-amine], the entries for the “Aldol product / color formed with MDAB” value in data set [26] and in data set [26] (listed as 3-aminoindole) were “Formation of the expected hetero aldol product was not observed” and “failed to yield any aldol product”, respectively.
